Results published in patent US11634447B2 (priority 2012, dated 2023).

What follows are molecules tested on bacterial strain LF82 binding to the glycoprotein BSA-(Mannose)3 (assay: Bacterial Binding Assay (BBA)). Settings: read-out: Bacterial Binding Assay IC50, LF82/Luciferase strain binding to BSA-(Man)3 coated plates, luminescence.
Type: cell-based, Escherichia coli
Method in brief: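 Inhibition of LF82/luciferase E. coli adhesion is read as luminescence after washing off unbound cells. Compound and bacteria (10^7 per well) are co-incubated 40-75 min at room temperature on wells coated with 0.5-2 μg/mL BSA-(Man)3, with BSA-only wells as background; IC50 values derived.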

Row | SMILES | IC50 [nM]
1 | COc1c(C#C[C@H]2O[C@H](CO)[C@@H](O)[C@H](O)[C@@H]2O)ccc2c(OC)c(C#C[C@H]3O[C@H](CO)[C@@H](O)[C@H](O)[C@@H]3O)ccc12 [Compound 125, (2R,3S,4R,5S,6R)-2-[2-[1,5-dimethoxy-6-[2-[(2R,3S,4R,5S,6R)-3,4,5-trihydroxy-6-(hydroxymethyl)tetrahydropyran-2-yl]ethynyl]-2-naphthyl]ethynyl]-6-(hydroxymethyl)tetrahydropyran-3,4,5-triol] | 54
2 | CC1(O)CCC2(CC1)c1cc(C#C[C@H]3O[C@H](CO)[C@@H](O)[C@H](O)[C@@H]3O)ccc1-c1ccc(C#C[C@H]3O[C@H](CO)[C@@H](O)[C@H](O)[C@@H]3O)cc12 [Compound 204] | 0.8
3 | Cc1cc(C#C[C@H]2O[C@H](CO)[C@@H](O)[C@H](O)[C@@H]2O)ccc1-c1ccc(C#C[C@H]2O[C@H](CO)[C@@H](O)[C@H](O)[C@@H]2O)cc1C [Compound 124, (2R,3S,4R,5S,6R)-2-(hydroxymethyl)-6-[2-[3-methyl-4-[2-methyl-4-[2-[(2R,3S,4R,5S,6R)-3,4,5-trihydroxy-6-(hydroxymethyl)tetrahydropyran-2-yl]ethynyl]phenyl]phenyl]ethynyl]tetrahydropyran-3,4,5-triol] | 27
4 | COc1cccc(C2(O)c3cc(C#C[C@H]4O[C@H](CO)[C@@H](O)[C@H](O)[C@@H]4O)ccc3-c3ccc(C#C[C@H]4O[C@H](CO)[C@@H](O)[C@H](O)[C@@H]4O)cc32)c1 [Compound 170, (2R,3S,4R,5S,6R)-2-[2-[9-hydroxy-9-(3-methoxyphenyl)-7-[2-[(2R,3S,4R,5S,6R)-3,4,5-trihydroxy-6-(hydroxymethyl)tetrahydropyran-2-yl]ethynyl]fluoren-2-yl]ethynyl]-6-(hydroxymethyl)tetrahydropyran-3,4,5-triol] | 7.5
5 | Cc1cc(N2CC(=O)N(c3ccc([C@H]4O[C@H](CO)[C@@H](O)[C@H](O)[C@@H]4O)c(C)c3)CC2=O)ccc1[C@H]1O[C@H](CO)[C@@H](O)[C@H](O)[C@@H]1O [Compound 172, 1,4-bis[3-methyl-4-[(2R,3S,4R,5S,6R)-3,4,5-trihydroxy-6-(hydroxymethyl)tetrahydropyran-2-yl]phenyl]piperazine-2,5-dione] | 188
6 | Cc1cc(/C=C/c2ccc([C@H]3O[C@H](CO)[C@@H](O)[C@H](O)[C@@H]3O)c(C)c2)ccc1[C@H]1O[C@H](CO)[C@@H](O)[C@H](O)[C@@H]1O [Compound 159, (2R,3S,4R,5S,6R)-2-(hydroxymethyl)-6-[2-methyl-4-[(E)-2-[3-methyl-4-[(2R,3S,4R,5S,6R)-3,4,5-trihydroxy-6-(hydroxymethyl)tetrahydropyran-2-yl]phenyl]vinyl]phenyl]tetrahydropyran-3,4,5-triol] | 46
7 | CC(C)c1cc(C#C[C@H]2O[C@H](CO)[C@@H](O)[C@H](O)[C@@H]2O)c(C(C)C)cc1C#C[C@H]1O[C@H](CO)[C@@H](O)[C@H](O)[C@@H]1O [Compound 76] | 46
8 | OC[C@H]1O[C@H](C#Cc2ccc3nc(C#C[C@H]4O[C@H](CO)[C@@H](O)[C@H](O)[C@@H]4O)ccc3c2)[C@@H](O)[C@@H](O)[C@@H]1O [Compound 126, (2R,3S,4R,5S,6R)-2-(hydroxymethyl)-6-[2-[2-[2-[(2R,3S,4R,5S,6R)-3,4,5-trihydroxy-6-(hydroxymethyl)tetrahydropyran-2-yl]ethynyl]-6-quinolyl]ethynyl]tetrahydropyran-3,4,5-triol] | 124
9 | NC1CCC2(CC1)c1cc(C#C[C@H]3O[C@H](CO)[C@@H](O)[C@H](O)[C@@H]3O)ccc1-c1ccc(C#C[C@H]3O[C@H](CO)[C@@H](O)[C@H](O)[C@@H]3O)cc12 [Compound 205] | 0.39
10 | Cc1cc(C#C[C@H]2O[C@H](CO)[C@@H](O)[C@H](O)[C@@H]2O)cc(C)c1C#C[C@H]1O[C@H](CO)[C@@H](O)[C@H](O)[C@@H]1O [Compound 100, (2R,3S,4R,5S,6R)-2-[2-[3,5-dimethyl-4-[2-[(2R,3S,4R,5S,6R)-3,4,5-trihydroxy-6-(hydroxymethyl)tetrahydropyran-2-yl]ethynyl]phenyl]ethynyl]-6-(hydroxymethyl)tetrahydropyran-3,4,5-triol] | 28
11 | OC[C@H]1O[C@H](c2ccc(-c3ccc(-c4ccc([C@H]5O[C@H](CO)[C@@H](O)[C@H](O)[C@@H]5O)cc4)cc3)cc2)[C@@H](O)[C@@H](O)[C@@H]1O [Compound 65] | 55
12 | OC[C@H]1O[C@H](C#Cc2csc3c(C#C[C@H]4O[C@H](CO)[C@@H](O)[C@H](O)[C@@H]4O)csc23)[C@@H](O)[C@@H](O)[C@@H]1O [Compound 132, (2R,3S,4R,5S,6R)-2-(hydroxymethyl)-6-[2-[6-[2-[(2R,3S,4R,5S,6R)-3,4,5-trihydroxy-6-(hydroxymethyl)tetrahydropyran-2-yl]ethynyl]thieno[3,2-b]thiophen-3-yl]ethynyl]tetrahydropyran-3,4,5-triol] | 52
13 | CCC1(O)c2cc(C#C[C@H]3O[C@H](CO)[C@@H](O)[C@H](O)[C@@H]3O)ccc2-c2ccc(C#C[C@H]3O[C@H](CO)[C@@H](O)[C@H](O)[C@@H]3O)cc21 [Compound 166, (2R,3S,4R,5S,6R)-2-[2-[9-ethyl-9-hydroxy-7-[2-[(2R,3S,4R,5S,6R)-3,4,5-trihydroxy-6-(hydroxymethyl)tetrahydropyran-2-yl]ethynyl]fluoren-2-yl]ethynyl]-6-(hydroxymethyl)tetrahydropyran-3,4,5-triol] | 3
14 | OC[C@H]1O[C@H](C#Cc2ccc3oc4ccc(C#C[C@H]5O[C@H](CO)[C@@H](O)[C@H](O)[C@@H]5O)cc4c3c2)[C@@H](O)[C@@H](O)[C@@H]1O [Compound 106, (2R,3S,4R,5S,6R)-2-(hydroxymethyl)-6-[2-[8-[2-[(2R,3S,4R,5S,6R)-3,4,5-trihydroxy-6-(hydroxymethyl)tetrahydropyran-2-yl]ethynyl]dibenzofuran-2-yl]ethynyl]tetrahydropyran-3,4,5-triol] | 7.9
15 | N#Cc1cc(C#C[C@H]2O[C@H](CO)[C@@H](O)[C@H](O)[C@@H]2O)ccc1C#C[C@H]1O[C@H](CO)[C@@H](O)[C@H](O)[C@@H]1O [Compound 101, 2,5-bis[2-[(2R,3S,4R,5S,6R)-3,4,5-trihydroxy-6-(hydroxymethyl)tetrahydropyran-2-yl]ethynyl]benzonitrile] | 21
16 | OC[C@H]1O[C@H](C#Cc2ccc3c(c2)c2cc(C#C[C@H]4O[C@H](CO)[C@@H](O)[C@H](O)[C@@H]4O)ccc2n3-c2ccccc2)[C@@H](O)[C@@H](O)[C@@H]1O [Compound 164] | 35
17 | NC(=O)CCC(=O)c1c(C#C[C@H]2O[C@H](CO)[C@@H](O)[C@H](O)[C@@H]2O)ccc2c1C1(CCNCC1)c1cc(C#C[C@H]3O[C@H](CO)[C@@H](O)[C@H](O)[C@@H]3O)ccc1-2 [Compound 234, 4-[2,7-bis[2-[(2R,3S,4R,5S,6R)-3,4,5-trihydroxy-6-(hydroxymethyl)tetrahydropyran-2-yl]ethynyl]spiro[fluorene-9,4piperidine]-1yl]-4-oxo-butanamide] | 0.04
18 | CO[C@H](C)C(=O)c1c(C#C[C@H]2O[C@H](CO)[C@@H](O)[C@H](O)[C@@H]2O)ccc2c1C1(CCNCC1)c1cc(C#C[C@H]3O[C@H](CO)[C@@H](O)[C@H](O)[C@@H]3O)ccc1-2 [Compound 229, (2R)-1-[2,7-bis[2-[(2R,3S,4R,5S,6R)-3,4,5-trihydroxy-6-(hydroxymethyl)tetrahydropyran-2-yl]ethynyl]spiro[fluorene-9,4piperidine]-1yl]-2-methoxy-propan-1-one] | 0.35
19 | CC1(C(=O)c2c(C#C[C@H]3O[C@H](CO)[C@@H](O)[C@H](O)[C@@H]3O)ccc3c2C2(CCNCC2)c2cc(C#C[C@H]4O[C@H](CO)[C@@H](O)[C@H](O)[C@@H]4O)ccc2-3)CC1 [Compound 225, [2,7-bis[2-[(2R,3S,4R,5S,6R)-3,4,5-trihydroxy-6-(hydroxymethyl)tetrahydropyran-2-yl]ethynyl]spiro[fluorene-9,4piperidine]-1yl]-(1-methylcyclopropyl)methanone] | 1.2
20 | COCc1cc(C#C[C@H]2O[C@H](CO)[C@@H](O)[C@H](O)[C@@H]2O)c(COC)cc1C#C[C@H]1O[C@H](CO)[C@@H](O)[C@H](O)[C@@H]1O [Compound 89, (2R,3S,4R,5S,6R)-2-[2-[2,5-bis(methoxymethyl)-4-[2-[(2R,3S,4R,5S,6R)-3,4,5-trihydroxy-6-(hydroxymethyl)tetrahydropyran-2-yl]ethynyl]phenyl]ethynyl]-6-(hydroxymethyl)tetrahydropyran-3,4,5-triol] | 82
21 | O=C(Cn1c2cc(C#C[C@H]3O[C@H](CO)[C@@H](O)[C@H](O)[C@@H]3O)ccc2c2ccc(C#C[C@H]3O[C@H](CO)[C@@H](O)[C@H](O)[C@@H]3O)cc21)NCCN1CCOCC1 [Compound 178, 2-[2,7-bis[2-[(2R,3S,4R,5S,6R)-3,4,5-trihydroxy-6-(hydroxymethyl)tetrahydropyran-2-yl]ethynyl]carbazol-9-yl]-N-(2-morpholinoethyl)acetamide] | 3.1
22 | OC[C@H]1O[C@H](C#Cc2ccc3c(c2)C2(CCC(O)CC2)c2cc(C#C[C@H]4O[C@H](CO)[C@@H](O)[C@H](O)[C@@H]4O)ccc2-3)[C@@H](O)[C@@H](O)[C@@H]1O (stereo partly drawn) [Compound 203] | 0.04
23 | OCCC1(CCO)c2cc(C#C[C@H]3O[C@H](CO)[C@@H](O)[C@H](O)[C@@H]3O)ccc2-c2ccc(C#C[C@H]3O[C@H](CO)[C@@H](O)[C@H](O)[C@@H]3O)cc21 [Compound 193, (2R,3S,4R,5S,6R)-2-[2-[9,9-Bis(2-hydroxyethyl)-7-[2-[(2R,3S,4R,5S,6R)-3,4,5-trihydroxy-6-(hydroxymethyl)tetrahydropyran-2-yl]ethynyl]fluoren-2-yl]ethynyl]-6-(hydroxymethyl)tetrahydropyran-3,4,5-triol] | 0.27
24 | OC[C@H]1O[C@H](c2cc3ccc(C#C[C@H]4O[C@H](CO)[C@@H](O)[C@H](O)[C@@H]4O)cc3[nH]2)[C@@H](O)[C@@H](O)[C@@H]1O [Compound 146, (2R,3 S,4R,5S,6R)-2-(hydroxymethyl)-6-[2-[2-[(2R,3 S,4R,5S,6R)-3,4,5-trihydroxy-6-(hydroxymethyl)tetrahydropyran-2-yl]-1H-indol-6-yl]ethynyl]tetrahydropyran-3,4,5-triol] | 165
